The source of these data is patent US9302988B2, “Fluoromethyl-substituted pyrrole carboxamides” (GRÜNENTHAL GMBH, priority 2012, dated 2016).

The structures appear in SMILES notation.

The target of this assay is T1, Human CaV2.2 channels (Homo sapiens, UniProt Q00975).
T1 construct: expressed in transfected cells
T1 sequence (Q00975 whole entry): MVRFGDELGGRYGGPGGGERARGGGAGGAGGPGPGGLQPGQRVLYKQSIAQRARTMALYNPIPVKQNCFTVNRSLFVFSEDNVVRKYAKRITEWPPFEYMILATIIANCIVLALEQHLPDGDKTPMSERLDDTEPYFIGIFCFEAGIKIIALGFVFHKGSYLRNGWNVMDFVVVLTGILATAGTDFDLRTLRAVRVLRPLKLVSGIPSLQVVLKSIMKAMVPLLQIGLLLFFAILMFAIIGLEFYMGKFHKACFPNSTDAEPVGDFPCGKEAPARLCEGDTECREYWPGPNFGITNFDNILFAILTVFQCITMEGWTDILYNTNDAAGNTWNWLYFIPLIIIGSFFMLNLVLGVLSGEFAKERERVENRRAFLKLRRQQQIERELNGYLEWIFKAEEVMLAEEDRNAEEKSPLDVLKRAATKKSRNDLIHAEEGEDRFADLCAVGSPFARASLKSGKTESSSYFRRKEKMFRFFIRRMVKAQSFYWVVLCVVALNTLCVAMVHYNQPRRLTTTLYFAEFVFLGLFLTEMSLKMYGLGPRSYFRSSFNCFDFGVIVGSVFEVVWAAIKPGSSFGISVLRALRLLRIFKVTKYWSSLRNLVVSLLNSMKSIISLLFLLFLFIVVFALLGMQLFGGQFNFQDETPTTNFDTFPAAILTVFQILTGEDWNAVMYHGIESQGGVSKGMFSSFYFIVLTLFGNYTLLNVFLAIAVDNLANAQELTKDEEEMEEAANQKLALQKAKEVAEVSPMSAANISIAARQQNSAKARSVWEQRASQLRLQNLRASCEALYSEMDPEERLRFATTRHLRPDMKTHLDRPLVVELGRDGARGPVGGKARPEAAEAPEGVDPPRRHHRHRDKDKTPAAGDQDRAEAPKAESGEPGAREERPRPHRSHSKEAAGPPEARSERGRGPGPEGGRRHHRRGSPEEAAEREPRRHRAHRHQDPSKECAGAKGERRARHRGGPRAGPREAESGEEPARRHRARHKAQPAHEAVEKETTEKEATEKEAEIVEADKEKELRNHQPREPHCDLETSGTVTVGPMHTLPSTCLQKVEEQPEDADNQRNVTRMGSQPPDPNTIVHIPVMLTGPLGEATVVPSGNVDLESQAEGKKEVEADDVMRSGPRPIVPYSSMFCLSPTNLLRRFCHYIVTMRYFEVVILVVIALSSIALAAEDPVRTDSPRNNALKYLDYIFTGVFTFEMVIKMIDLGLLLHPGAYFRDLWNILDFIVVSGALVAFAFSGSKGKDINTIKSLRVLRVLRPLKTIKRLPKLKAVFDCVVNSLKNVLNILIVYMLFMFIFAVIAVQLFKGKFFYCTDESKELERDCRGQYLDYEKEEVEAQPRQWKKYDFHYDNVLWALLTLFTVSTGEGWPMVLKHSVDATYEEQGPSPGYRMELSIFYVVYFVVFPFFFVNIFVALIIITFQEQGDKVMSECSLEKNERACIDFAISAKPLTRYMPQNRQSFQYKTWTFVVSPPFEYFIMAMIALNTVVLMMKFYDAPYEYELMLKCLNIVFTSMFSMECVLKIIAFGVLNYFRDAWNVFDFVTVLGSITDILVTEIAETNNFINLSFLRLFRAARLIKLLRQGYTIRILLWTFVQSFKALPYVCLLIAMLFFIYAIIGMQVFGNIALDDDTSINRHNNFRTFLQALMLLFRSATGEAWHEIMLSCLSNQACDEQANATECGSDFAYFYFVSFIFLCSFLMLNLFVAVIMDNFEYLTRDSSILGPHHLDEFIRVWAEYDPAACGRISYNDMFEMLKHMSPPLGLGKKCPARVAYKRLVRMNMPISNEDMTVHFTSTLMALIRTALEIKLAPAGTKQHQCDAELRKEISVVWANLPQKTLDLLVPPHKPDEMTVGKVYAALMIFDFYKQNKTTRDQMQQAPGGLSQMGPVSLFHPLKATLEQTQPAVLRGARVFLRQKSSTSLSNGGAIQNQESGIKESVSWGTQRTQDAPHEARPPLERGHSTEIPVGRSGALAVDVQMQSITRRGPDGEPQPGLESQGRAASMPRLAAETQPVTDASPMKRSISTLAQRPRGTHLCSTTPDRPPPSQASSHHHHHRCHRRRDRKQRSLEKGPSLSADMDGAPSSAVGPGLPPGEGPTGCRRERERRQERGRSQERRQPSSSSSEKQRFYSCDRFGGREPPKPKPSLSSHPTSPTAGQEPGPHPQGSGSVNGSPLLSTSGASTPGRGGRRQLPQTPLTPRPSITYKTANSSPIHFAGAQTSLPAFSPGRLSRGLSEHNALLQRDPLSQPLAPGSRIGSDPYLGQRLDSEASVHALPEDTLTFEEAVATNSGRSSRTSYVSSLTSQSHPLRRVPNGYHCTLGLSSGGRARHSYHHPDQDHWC
T1 sequence (P54289 25-1103, further chain): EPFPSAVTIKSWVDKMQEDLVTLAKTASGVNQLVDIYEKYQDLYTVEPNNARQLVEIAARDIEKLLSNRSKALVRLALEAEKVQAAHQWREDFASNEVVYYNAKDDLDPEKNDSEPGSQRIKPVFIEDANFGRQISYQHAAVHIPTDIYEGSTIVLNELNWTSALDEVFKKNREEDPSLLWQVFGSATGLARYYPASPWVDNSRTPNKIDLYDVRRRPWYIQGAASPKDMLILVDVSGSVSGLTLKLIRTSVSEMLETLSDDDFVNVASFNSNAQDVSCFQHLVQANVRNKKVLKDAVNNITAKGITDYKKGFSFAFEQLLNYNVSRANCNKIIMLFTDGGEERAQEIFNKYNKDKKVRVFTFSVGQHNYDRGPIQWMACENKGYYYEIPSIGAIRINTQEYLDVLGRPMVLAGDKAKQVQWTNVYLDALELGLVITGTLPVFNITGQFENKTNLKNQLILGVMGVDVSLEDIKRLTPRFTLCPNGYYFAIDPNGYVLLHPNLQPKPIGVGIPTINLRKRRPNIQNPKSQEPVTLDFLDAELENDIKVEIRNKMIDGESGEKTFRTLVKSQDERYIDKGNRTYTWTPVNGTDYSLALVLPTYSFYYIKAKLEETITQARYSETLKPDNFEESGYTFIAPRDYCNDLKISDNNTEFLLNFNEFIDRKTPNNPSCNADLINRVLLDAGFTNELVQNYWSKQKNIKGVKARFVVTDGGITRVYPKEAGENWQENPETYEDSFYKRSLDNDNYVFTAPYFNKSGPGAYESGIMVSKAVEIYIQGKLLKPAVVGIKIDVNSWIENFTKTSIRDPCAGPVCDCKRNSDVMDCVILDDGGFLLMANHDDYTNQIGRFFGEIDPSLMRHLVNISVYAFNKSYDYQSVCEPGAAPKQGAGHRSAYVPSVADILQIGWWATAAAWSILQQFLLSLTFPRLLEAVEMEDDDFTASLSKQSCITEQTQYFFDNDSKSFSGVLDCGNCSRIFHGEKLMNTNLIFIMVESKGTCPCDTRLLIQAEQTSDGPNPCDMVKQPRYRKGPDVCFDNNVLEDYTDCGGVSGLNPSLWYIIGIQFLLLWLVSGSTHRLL
T1 sequence (P54284 whole entry, further chain): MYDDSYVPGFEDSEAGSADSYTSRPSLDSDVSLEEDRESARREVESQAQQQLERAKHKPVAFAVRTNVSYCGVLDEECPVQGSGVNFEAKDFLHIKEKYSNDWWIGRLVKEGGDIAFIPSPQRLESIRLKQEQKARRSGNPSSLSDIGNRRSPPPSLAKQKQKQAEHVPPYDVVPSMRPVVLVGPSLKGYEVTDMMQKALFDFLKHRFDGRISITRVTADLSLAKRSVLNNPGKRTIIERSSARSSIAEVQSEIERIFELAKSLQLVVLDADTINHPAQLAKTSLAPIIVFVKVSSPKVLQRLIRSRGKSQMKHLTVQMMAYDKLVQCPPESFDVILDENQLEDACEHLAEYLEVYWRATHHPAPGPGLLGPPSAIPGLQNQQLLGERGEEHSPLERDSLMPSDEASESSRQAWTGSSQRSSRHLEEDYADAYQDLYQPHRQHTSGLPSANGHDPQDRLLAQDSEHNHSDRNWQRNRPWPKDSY
In words: Fluorescent assay for CaV2.2 channels using potassium depolarization to induce channel opening (FLIPR, Fluo-4). Type of assay: cell-based. Particulars: 3 μM test compound, 30 mM KCl, HEK293 cells stably expressing human CaV2.2; read-out: %-Inhib (CaV2.2) @3 μM @30 mM KCl. An outline of the steps:
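Channel block was read as the baseline-normalized peak Ca²⁺ signal (Fluo-4, 480/535 nm) after a high-KCl depolarizing addition (210 mM KCl buffer). Beforehand, compound sat 15 min at 25 °C on HEK293 cells carrying human CaV2.2, α2δ/β subunits and Kir2.3, in pH 7.4 buffer with 30 mM KCl.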
Take `CC(C)NC(=O)c1c(-c2ccc(Cl)cc2)cc(C(F)(F)F)n1Cc1ccccc1` [SC-214, 1-Benzyl-3-(4-chlorophenyl)-N-isopropyl-5-(trifluoromethyl)-1H-pyrrole-2-carboxylic acid amide]: the inhibition at 3 µM fell in the range of 75 to 95%. For the molecule `Cc1cnc(CN(C)C(=O)c2c(-c3ccc(Cl)cc3)cc(C(F)(F)F)n2Cc2ccccc2)cn1` [SC-215, 1-Benzyl-3-(4-chlorophenyl)-N-methyl-N-[(5-methyl-pyrazin-2-yl)-methyl]-5-(trifluoromethyl)-1H-pyrrole-2-carboxylic acid amide], the inhibition at 3 µM was greater than 95%.

For `CN(Cc1cnc(N(C)C)nc1)C(=O)c1c(-c2ccc(Cl)cc2)cc(C(F)(F)F)n1Cc1ccccc1` [SC-216, 1-Benzyl-3-(4-chlorophenyl)-N-[(2-dimethylamino-pyrimidin-5-yl)-methyl]-N-methyl-5-(trifluoromethyl)-1H-pyrrole-2-carboxylic acid amide], the inhibition at 3 µM lay in the range of 75 to 95%. For the molecule `O=C(c1c(-c2ccc(Cl)cc2)cc(C(F)(F)F)n1Cc1ccccc1)N1CCn2ccnc2C1` [SC-217, [1-Benzyl-3-(4-chlorophenyl)-5-(trifluoromethyl)-1H-pyrrol-2-yl]-(5,6,7,8-tetrahydro-imidazo[1,2-a]pyrazin-7-yl)-methanone], the inhibition at 3 µM was greater than 95%. As to `Cc1c(-c2ccc(F)cc2)c(C(=O)N(C)CC(C)(C)CO)n(Cc2ccccc2)c1C(F)(F)F` [SC-218, 1-Benzyl-3-(4-fluorophenyl)-N-(3-hydroxy-2,2-dimethyl-propyl)-N,4-dimethyl-5-(trifluoromethyl)-1H-pyrrole-2-carboxylic acid amide], the inhibition at 3 µM is greater than 95%.

Turning to `Cc1c(-c2ccc(F)cc2)c(C(=O)N(C)CCS(C)(=O)=O)n(Cc2ccccc2)c1C(F)(F)F` [SC-219, 1-Benzyl-3-(4-fluorophenyl)-N,4-dimethyl-N-(2-methylsulfonyl-ethyl)-5-(trifluoromethyl)-1H-pyrrole-2-carboxylic acid amide], the inhibition at 3 µM is greater than 95%.

With `Cc1c(-c2ccc(F)cc2)c(C(=O)N(C)C2CCOCC2)n(Cc2ccccc2)c1C(F)(F)F` [SC-220, 1-Benzyl-3-(4-fluorophenyl)-N,4-dimethyl-N-tetrahydro-pyran-4-yl-5-(trifluoromethyl)-1H-pyrrole-2-carboxylic acid amide], the inhibition at 3 µM was greater than 95%. For `Cc1c(-c2ccc(F)cc2)c(C(=O)N(C)C2CC2)n(Cc2ccccc2)c1C(F)(F)F` [SC-221, 1-Benzyl-N-cyclopropyl-3-(4-fluorophenyl)-N,4-dimethyl-5-(trifluoromethyl)-1H-pyrrole-2-carboxylic acid amide], the inhibition at 3 µM was greater than 95%.

Consider `Cc1c(-c2ccc(F)cc2)c(C(=O)N(C)C(C)(C)CO)n(Cc2ccccc2)c1C(F)(F)F` [SC-222, 1-Benzyl-3-(4-fluorophenyl)-N-(2-hydroxy-1,1-dimethyl-ethyl)-N,4-dimethyl-5-(trifluoromethyl)-1H-pyrrole-2-carboxylic acid amide], for which the inhibition at 3 µM is greater than 95%. Turning to `Cc1c(-c2ccc(F)cc2)c(C(=O)N2CC(O)C2)n(Cc2ccccc2)c1C(F)(F)F` [SC-223, [1-Benzyl-3-(4-fluorophenyl)-4-methyl-5-(trifluoromethyl)-1H-pyrrol-2-yl]-(3-hydroxy-azetidin-1-yl)-methanone], the inhibition at 3 µM lay in the range of 75 to 95%.

On to `Cc1c(-c2ccc(F)cc2)c(C(=O)N(C)CC(C)(C)C)n(Cc2ccccc2)c1C(F)(F)F` [SC-224, 1-Benzyl-N-(2,2-dimethyl-propyl)-3-(4-fluorophenyl)-N,4-dimethyl-5-(trifluoromethyl)-1H-pyrrole-2-carboxylic acid amide], for which the inhibition at 3 µM is 75 to 95%.

As to `Cc1c(-c2ccc(F)cc2)c(C(=O)N2CCOC(C)(C)C2)n(Cc2ccccc2)c1C(F)(F)F` [SC-225, [1-Benzyl-3-(4-fluorophenyl)-4-methyl-5-(trifluoromethyl)-1H-pyrrol-2-yl]-(2,2-dimethyl-morpholin-4-yl)-methanone], the inhibition at 3 µM was greater than 95%. Consider `Cc1c(-c2ccc(F)cc2)c(C(=O)N(C)CC2CCOC2)n(Cc2ccccc2)c1C(F)(F)F` (stereo not shown) [SC-226, 1-Benzyl-3-(4-fluorophenyl)-N,4-dimethyl-N-(tetrahydro-furan-3-yl-methyl)-5-(trifluoromethyl)-1H-pyrrole-2-carboxylic acid amide], for which the inhibition at 3 µM is greater than 95%. To `Cc1c(-c2ccc(C(F)(F)F)cc2)c(C(=O)N(C)CC(C)(C)CO)n(Cc2ccccc2)c1C(F)(F)F` [SC-227, 1-Benzyl-N-(3-hydroxy-2,2-dimethyl-propyl)-N,4-dimethyl-5-(trifluoromethyl)-3-[4-(trifluoromethyl)-phenyl]-1H-pyrrole-2-carboxylic acid amide] belongs 75 to 95%. `Cc1c(-c2ccc(C(F)(F)F)cc2)c(C(=O)N(C)CCS(C)(=O)=O)n(Cc2ccccc2)c1C(F)(F)F` [SC-228, 1-Benzyl-N,4-dimethyl-N-(2-methylsulfonyl-ethyl)-5-(trifluoromethyl)-3-[4-(trifluoromethyl)-phenyl]-1H-pyrrole-2-carboxylic acid amide]: the inhibition at 3 µM lay within 75 to 95%.

On to `Cc1c(-c2ccc(C(F)(F)F)cc2)c(C(=O)N(C)C2CCOCC2)n(Cc2ccccc2)c1C(F)(F)F` [SC-229, 1-Benzyl-N,4-dimethyl-N-tetrahydro-pyran-4-yl-5-(trifluoromethyl)-3-[4-(trifluoromethyl)-phenyl]-1H-pyrrole-2-carboxylic acid amide], for which the inhibition at 3 µM is 75 to 95%.

`Cc1c(-c2ccc(C(F)(F)F)cc2)c(C(=O)N(C)C2CC2)n(Cc2ccccc2)c1C(F)(F)F` [SC-230, 1-Benzyl-N-cyclopropyl-N,4-dimethyl-5-(trifluoromethyl)-3-[4-(trifluoromethyl)-phenyl]-1H-pyrrole-2-carboxylic acid amide]: the inhibition at 3 µM was in the range of 40 to 75%. For the molecule `Cc1c(-c2ccc(C(F)(F)F)cc2)c(C(=O)N(C)C(C)(C)CO)n(Cc2ccccc2)c1C(F)(F)F` [SC-231, 1-Benzyl-N-(2-hydroxy-1,1-dimethyl-ethyl)-N,4-dimethyl-5-(trifluoromethyl)-3-[4-(trifluoromethyl)-phenyl]-1H-pyrrole-2-carboxylic acid amide], the inhibition at 3 µM is greater than 95%. Regarding `Cc1c(-c2ccc(C(F)(F)F)cc2)c(C(=O)N2CC(O)C2)n(Cc2ccccc2)c1C(F)(F)F` [SC-232, [1-Benzyl-4-methyl-5-(trifluoromethyl)-3-[4-(trifluoromethyl)-phenyl]-1H-pyrrol-2-yl]-(3-hydroxy-azetidin-1-yl)-methanone], the inhibition at 3 µM lay within 40 to 75%. For the molecule `Cc1c(-c2ccc(C(F)(F)F)cc2)c(C(=O)N(C)CC(C)(C)C)n(Cc2ccccc2)c1C(F)(F)F` [SC-233, 1-Benzyl-N-(2,2-dimethyl-propyl)-N,4-dimethyl-5-(trifluoromethyl)-3-[4-(trifluoromethyl)-phenyl]-1H-pyrrole-2-carboxylic acid amide], the inhibition at 3 µM lay within 30 to 40%.

`Cc1c(-c2ccc(C(F)(F)F)cc2)c(C(=O)N2CCOC(C)(C)C2)n(Cc2ccccc2)c1C(F)(F)F` [SC-234, [1-Benzyl-4-methyl-5-(trifluoromethyl)-3-[4-(trifluoromethyl)-phenyl]-1H-pyrrol-2-yl]-(2,2-dimethyl-morpholin-4-yl)-methanone]: the inhibition at 3 µM was 75 to 95%. Turning to `Cc1c(-c2ccc(OC(F)(F)F)cc2)c(C(=O)N(C)CC(C)(C)CO)n(Cc2ccccc2)c1C(F)(F)F` [SC-235, 1-Benzyl-N-(3-hydroxy-2,2-dimethyl-propyl)-N,4-dimethyl-5-(trifluoromethyl)-3-[4-(trifluoromethyloxy)-phenyl]-1H-pyrrole-2-carboxylic acid amide], the inhibition at 3 µM is 75 to 95%. Take `Cc1c(-c2ccc(OC(F)(F)F)cc2)c(C(=O)N(C)CCS(C)(=O)=O)n(Cc2ccccc2)c1C(F)(F)F` [SC-236, 1-Benzyl-N,4-dimethyl-N-(2-methylsulfonyl-ethyl)-5-(trifluoromethyl)-3-[4-(trifluoromethyloxy)-phenyl]-1H-pyrrole-2-carboxylic acid amide]: the inhibition at 3 µM is greater than 95%. `Cc1c(-c2ccc(OC(F)(F)F)cc2)c(C(=O)N(C)C2CCOCC2)n(Cc2ccccc2)c1C(F)(F)F` [SC-237, 1-Benzyl-N,4-dimethyl-N-tetrahydro-pyran-4-yl-5-(trifluoromethyl)-3-[4-(trifluoromethyloxy)-phenyl]-1H-pyrrole-2-carboxylic acid amide]: the inhibition at 3 µM lay in the range of 75 to 95%. Turning to `Cc1c(-c2ccc(OC(F)(F)F)cc2)c(C(=O)N(C)C2CC2)n(Cc2ccccc2)c1C(F)(F)F` [SC-238, 1-Benzyl-N-cyclopropyl-N,4-dimethyl-5-(trifluoromethyl)-3-[4-(trifluoromethyloxy)-phenyl]-1H-pyrrole-2-carboxylic acid amide], the inhibition at 3 µM fell in the range of 40 to 75%. As for `Cc1c(-c2ccc(OC(F)(F)F)cc2)c(C(=O)N2CC(O)C2)n(Cc2ccccc2)c1C(F)(F)F` [SC-239, [1-Benzyl-4-methyl-5-(trifluoromethyl)-3-[4-(trifluoromethyloxy)-phenyl]-1H-pyrrol-2-yl]-(3-hydroxy-azetidin-1-yl)-methanone], the inhibition at 3 µM is 75 to 95%. To `Cc1c(-c2ccc(OC(F)(F)F)cc2)c(C(=O)N(C)CC(C)(C)C)n(Cc2ccccc2)c1C(F)(F)F` [SC-240, 1-Benzyl-N-(2,2-dimethyl-propyl)-N,4-dimethyl-5-(trifluoromethyl)-3-[4-(trifluoromethyloxy)-phenyl]-1H-pyrrole-2-carboxylic acid amide] belongs 30 to 40%.

Turning to `Cc1c(-c2ccc(OC(F)(F)F)cc2)c(C(=O)N(C)C(C)(C)CO)n(Cc2ccccc2)c1C(F)(F)F` [SC-241, 1-Benzyl-N-(2-hydroxy-1,1-dimethyl-ethyl)-N,4-dimethyl-5-(trifluoromethyl)-3-[4-(trifluoromethyloxy)-phenyl]-1H-pyrrole-2-carboxylic acid amide], the inhibition at 3 µM is greater than 95%.
